From ChEMBL document CHEMBL4699447, “Initial Analysis of the Arylomycin D Antibiotics” (2020)

Key:
Format in all cases: functional
Yersinia pestis = experiment: Antimicrobial activity against Yersinia pestis KIM6+ assessed as reduction in microbial growth after 24 hrs by CLSI based broth microdilution method
Escherichia coli [1] = experiment: Antimicrobial activity against Escherichia coli K-12 assessed as reduction in microbial growth after 24 hrs by CLSI based broth microdilution method
[2] = test system: Staphylococcus epidermidis; experiment: Antimicrobial activity against Staphylococcus epidermidis RP62A assessed as reduction in microbial growth after 24 hrs by CLSI based broth microdilution method
Staphylococcus aureus = experiment: Antimicrobial activity against methicillin-resistant Staphylococcus aureus USA300 assessed as reduction in microbial growth after 24 hrs by CLSI based broth microdilution method
Escherichia coli [3] = experiment: Antimicrobial activity against Escherichia coli IMP BAS901 assessed as reduction in microbial growth after 24 hrs by CLSI based broth microdilution method

SMILES	MIC (Yersinia pestis)	MIC (Escherichia coli [1])	MIC [2]	MIC (Staphylococcus aureus)	MIC (Escherichia coli [3])
CCCCCCCCCCCCCCCC(=O)NCCC(=O)N[C@@H](CS(=O)(=O)O)C(=O)N(C)[C@@H]1C(=O)N[C@@H](C)C(=O)N[C@H](C(=O)O)Cc2ccc(O)c(c2)-c2cc1ccc2O	2 µg/mL	> 64 µg/mL	4 µg/mL	16 µg/mL	> 64 µg/mL
CCCCCCCCCCCCCCCC(=O)NCCC(=O)N[C@@H](CS(=O)(=O)O)C(=O)N(C)[C@@H]1C(=O)N[C@@H](C)C(=O)N[C@H](C(=O)O)Cc2ccc(OS(=O)(=O)O)c(c2)-c2cc1cc(OS(=O)(=O)O)c2O[C@@H]1O[C@@H](C)[C@H](O)[C@@H](O)[C@H]1O	> 64 µg/mL	–	> 64 µg/mL	> 64 µg/mL	> 64 µg/mL
CCCCCCCCCCCCCCCC(=O)NCCC(=O)N[C@H](CS(=O)(=O)O)C(=O)N(C)[C@@H]1C(=O)N[C@@H](C)C(=O)N[C@H](C(=O)O)Cc2ccc(OS(=O)(=O)O)c(c2)-c2cc1cc(OS(=O)(=O)O)c2O[C@@H]1O[C@@H](C)[C@H](O)[C@@H](O)[C@H]1O	> 64 µg/mL	–	> 64 µg/mL	> 64 µg/mL	> 64 µg/mL
CCCCCCCCCCCCCCCC(=O)N(C)[C@H](CO)C(=O)N[C@H](C)C(=O)NCC(=O)N(C)[C@@H]1C(=O)N[C@@H](C)C(=O)N[C@H](C(=O)O)Cc2ccc(OS(=O)(=O)O)c(c2)-c2cc1cc(OS(=O)(=O)O)c2O[C@@H]1O[C@@H](C)[C@H](O)[C@@H](O)[C@H]1O	> 64 µg/mL	–	> 64 µg/mL	> 64 µg/mL	> 64 µg/mL
CCCCCCCCCCCCCCCC(=O)NCCC(=O)N[C@@H](CS(=O)(=O)O)C(=O)N(C)[C@@H]1C(=O)N[C@@H](C)C(=O)N[C@H](C(=O)O)Cc2ccc(O)c(c2)-c2cc1cc(O)c2O[C@@H]1O[C@@H](C)[C@H](O)[C@@H](O)[C@H]1O	4 µg/mL	> 64 µg/mL	8 µg/mL	32 µg/mL	64 µg/mL
CCCCCCCCCCCCCCCC(=O)N(C)[C@H](CO)C(=O)N[C@H](C)C(=O)NCC(=O)N(C)[C@@H]1C(=O)N[C@@H](C)C(=O)N[C@H](C(=O)O)Cc2ccc(O)c(c2)-c2cc1ccc2O [ARYLOMYCIN C16]	–	> 64 µg/mL	0.25 µg/mL	> 64 µg/mL	16 µg/mL
